This passage reports GI50 results from patent publication US11999716B2, “WDR5 inhibitors and modulators” (priority 2018, dated 2024).

In this assay the test system is MV4:11 human cancer cell lines. Briefly: Cellular viability / anti-proliferative activity, CellTiter-Glo, 5 day protocol. The format is cell-based. Particulars: Homo sapiens, MV4-11, 120 h, MV4:11 cells; 5 day incubation; CellTiter-Glo; mean of minimum two replicates; read-out: GI50 on cellular proliferation of MV4:11 human cancer cell lines. The method, then: Cellular Viability of Human Tumor Cell Lines
Anti proliferative activity using MLL-harboring cell lines. […] Viability assays are performed by dispensing 200 cells at 7200 cells/mL into each well of an opaque 384-well plate and adding compounds at the indicated concentrations in a final volume of 32 μL and a final concentration of DMSO of 0.3% for all samples. A certain range of compound concentrations is made through a series of 2-fold dilutions starting 30 μM at the highest, total 22 dilutions. After a set incubation period, 5 day protocol, the viability of cells in each well is assessed using the CellTiter-Glo assay (Promega), read on a 96 Microplane Luminometer (Cytation 3, BioTek). Serial dilutions of each cell type are performed in all assays to generate standard curves and the final densities of cells are determined within the dynamic range of the instrument. GI50 values are calculated based on XLfit software (IDBS, Guildford, UK) with Sigmoidal Dose-Response Model. Each compound is tested in minimum of two replicates. Data are expressed as mean.
Background: Cellular ATP, detected with luciferase, serves as a proxy for viable cell number.

`COc1ccnc([C@H](C)N2CCc3c(cc(Cn4ccnc4C)cc3-c3cccnc3C(F)(F)F)C2=O)c1` [Example 192, (S)-2-(1-(4-Methoxypyridin-2-yl)ethyl)-7-((2-methyl-1H-imidazol-1-yl)methyl)-5-(2-(trifluoromethyl)pyridin-3-yl)-3,4-dihydroisoquinolin-1(2H)-one]: the GI50 turned out to be 77 nM.

For `COc1cc(CN2CCc3c(cc(Cn4ccnc4C)cc3-c3ccc(F)cc3C)C2=O)cc(OC)c1` [Example 6, 2-(3,5-Dimethoxybenzyl)-5-(4-fluoro-2-methylphenyl)-7-((2-methyl-1H-imidazol-1-yl)methyl)-3,4-dihydroisoquinolin-1(2H)-one], the GI50 was 301 nM.

Turning to `Cc1cc([C@H](C2CC2)N2CCc3c(cc(Cn4ccn(C)c4=N)cc3-c3ccc(F)cc3C)C2=O)ccc1F` [Example 32, (S)-2-(Cyclopropyl(4-fluoro-3-methylphenyl)methyl)-5-(4-fluoro-2-methylphenyl)-7-((2-imino-3-methyl-2,3-dihydro-1H-imidazol-1-yl)methyl)-3,4-dihydroisoquinolin-1(2H)-one], the GI50 was 64 nM.

On to `COc1ccnc(CN2CCc3c(cc(Cn4ccn(C)c4=N)cc3-c3cn(C)nc3C)C2=O)c1` [Example 42, 5-(1,3-Dimethyl-1H-pyrazol-4-yl)-7-((2-imino-3-methyl-2,3-dihydro-1H-imidazol-1-yl)methyl)-2-((4-methoxypyridin-2-yl)methyl)-3,4-dihydroisoquinolin-1(2H)-one], for which the GI50 amounted to 291 nM.

Turning to `Cc1cc([C@H](C)N2CCc3c(OCC4CC4)cc(Cn4ccnc4C4CC4)cc3C2=O)ccc1F` [Example 23, (S)-7-((2-Cyclopropyl-1H-imidazol-1-yl)methyl)-5-(cyclopropylmethoxy)-2-(1-(4-fluoro-3-methylphenyl)ethyl)-3,4-dihydroisoquinolin-1(2H)-one], the GI50 is more than 938 nM.

In the case of `COc1ccnc([C@H](C)N2CCc3c(cc(Cn4ccnc4C)cc3-c3cnccc3C)C2=O)c1` [Example 196, (S)-2-(1-(4-Methoxypyridin-2-yl)ethyl)-7-((2-methyl-1H-imidazol-1-yl)methyl)-5-(4-methylpyridin-3-yl)-3,4-dihydroisoquinolin-1(2H)-one], the GI50 turned out to be 936 nM.

As for `CCn1cc(-c2cc(Cn3ccn(C)c3=N)cc3c2CN(Cc2cc(OC)ccn2)C3=O)c(C(F)(F)F)n1` [Example 137, 4-(1-Ethyl-3-(trifluoromethyl)-1H-pyrazol-4-yl)-6-((2-imino-3-methyl-2,3-dihydro-1H-imidazol-1-yl)methyl)-2-((4-methoxypyridin-2-yl)methyl)isoindolin-1-one], the GI50 turned out to be 944 nM.

As to `Cc1ccnc([C@H](C2CC2)N2CCc3c(cc(Cn4ccnc4C)cc3-c3ccc(F)cc3C)C2=O)c1` [Example 12, (S)-2-(Cyclopropyl(4-methylpyridin-2-yl)methyl)-5-(4-fluoro-2-methylphenyl)-7-((2-methyl-1H-imidazol-1-yl)methyl)-3,4-dihydroisoquinolin-1(2H)-one], the GI50 is 69 nM.

With `Cc1cc([C@H](C)N2CCc3c(cc(Cn4ccnc4C)cc3-c3cn(C)nc3C(F)(F)F)C2=O)ccc1F` [Example 24, (S)-2-(1-(4-Fluoro-3-methylphenyl)ethyl)-7-((2-methyl-1H-imidazol-1-yl)methyl)-5-(1-methyl-3-(trifluoromethyl)-1H-pyrazol-4-yl)-3,4-dihydroisoquinolin-1(2H)-one], the GI50 is less than 50 nM.

For the compound `COc1cncc(CN2CCc3c(cc(Cn4ccnc4C)cc3-c3cn(C)nc3C(F)(F)F)C2=O)c1` [Example 228, 2-((5-Methoxypyridin-3-yl)methyl)-7-((2-methyl-1H-imidazol-1-yl)methyl)-5-(1-methyl-3-(trifluoromethyl)-1H-pyrazol-4-yl)-3,4-dihydroisoquinolin-1(2H)-one], the GI50 is less than 50 nM.
